In US7101915B1, “P-terphenyl compounds” (Shionogi & Co., Ltd., priority 1996, dated 2006):

Columns and labels:
Assay type in all cases: cell-based
[1] = test system: mouse thymoma strain EL4 cells; experiment: Anti-proliferative activity on EL4 cells (MTT); conditions: 3 days
Procedure: Experiment 2 Anti-Proliferative Activity on EL4 Cells
In 96-well microtiter plate 4×10^4/0.1 ml of mouse thymoma strain EL4 cells were added and 0.1 ml of the compound of the present invention was added to the mixture so that the concentration was in the range of 0-5,000 ng/ml. After the cultivation for 3 days, the IC50 was calculated by the MTT method as described in Experiment 1.

[2] = test system: IgG production of human peripheral lymphocytes; experiment: Suppressive effect on the antibody production of human lymphocytes: IgG; conditions: 10 days, ELISA
Procedure: (§1) Experiment 5 Suppressive Effect on the Antibody Production of Human Lymphocytes
(§2) 1) Human Peripheral Blood
(§3) Human peripheral blood was drawn from healthy male adults by plastic syringes filled with heparin (final concentration 1.5%). Lymphocytes were collected immediately after blood was drawn.
(§4) RPMI medium (Nissui Pharmaceutical Co., Ltd.) containing 10% fetal bovine serum (HyClone Lab.) inactivated at 56° C. for 30 minutes, penicillin (100 units/ml) and streptomycin (100 μg/ml) (GIBCO) was used. […]
(§5) In 96-well cultivating plate (Sumitomo bakelite) the lymphocytes were inoculated 2×10^5 cells per well, and the compound, anti-human CD 40 antigen (Pharmingen, 2 μg/ml), human recombinant interleukin-4 (IL-4) (Genzyme, 0.1 μg/ml) and human recombinant interleukin-10 (IL-10) (Genzyme, 0.2 μg/ml) were added and cultivated at 37° C. under 5% of CO2 (0.2 ml/well). After the cultivation for 10 days, the amount of antibody in a supernatant was quantified by ELISA method.
(§6) 7) Quantification of the IgG and IgM Antibodies
(§7) ELISA method was used for the quantification. […] After washing three times with PBST, 100 μl of a sample diluted with PBS or 100 μl of human Plasma IgG standard solution or IgM standard solution (BioPur AG, Switzerland) of a pre-determined concentration was added and incubated at room temperature for 1 hour. […]

[3] = test system: IgE antibody production of human peripheral lymphocytes (anti-human CD 40, IL-4, IL-10); experiment: Suppressive effect on the antibody production of human lymphocytes: IgE; conditions: 10 days, ELISA
Procedure: as §1, §2, §3
RPMI medium (Nissui Pharmaceutical Co., Ltd.) containing 10% fetal bovine serum (HyClone Lab.) inactivated at 56° C. for 30 minutes, penicillin (100 units/ml) and streptomycin (100 μg/ml) (GIBCO) was used.
After the compound (I-839) of the present invention was dissolved in dimethylsulfoxide (Nakaraitesk) at […], the solution was diluted with the medium to adjust a final concentration to be 0.01 μg/ml −10 μg/ml. […]
as §5
6) Quantification of the IgE Antibody
A commercial kit MESACUP IgE test (Medical & Biological Laboratories Co., Ltd.) was used for the quantification of the IgE. […]

[4] = test system: C3H/HeN mouse splenocytes stimulated with lipopolysaccharide (LPS); experiment: Suppressive effect on mitogenic activity of mouse splenocytes in vitro, LPS as mitogen (MTT); conditions: LPS 10 μg/ml as mitogen, 3 days
Procedure: (§8) Experiment 1 Suppressive Effect on a Mitogenic Activity of Mouse Splenocytes In Vitro
(§9) In 96-well microtiter plate 5×10^5 C3H/HeN mouse splenocytes suspended in 0.1 ml of 10% fetal bovine serum-fortified RPMI 1640 medium containing 2 mM of sodium bicarbonate, 50 units/ml of penicillin, 50 μg/ml of streptomycin and 5×10^−5 M of 2-mercaptoethanol were added. Then, 5 μg/ml of Concanavalin A (Con A) or 10 μg/ml of lipopolysaccharide (LPS) as a mitogen and the compound of a pre-determined concentration of the present invention were added to each well so that a final volume of each well reached 0.2 ml. Each compound of the present invention was dissolved in dimethylsulfoxide (DMSO) and diluted with the above RPMI 1640 medium to adjust the final concentration of 100 ng/ml or less. The splenocytes in the 96-well microtiter plate were cultivated at 37° C. for 3 days in an incubator keeping the humidity 100%, carbon dioxide 5% and air 95%. Then, 25 μl of 6 mg/ml MTT [3-(4,5-dimethylthiazol-2-yl)-2,5-diphenyltetrazolium bromide] (Sigma) was added to the each well and cultivated at 37° C. for 4 hours under the same conditions. After the cultivation, 50 μl of 0.02 N hydrochloric acid in 20% sodium dodecyl sulfate (SDS) was added to formazan generated and left at 37° C. for 24 hours for dissolving formazan. An absorption intensity (OD) of formazan generated in proportion to the number of living cells was measured with an immunoreader (InterMed) equipped with a 570 nm filter (The Journal of Immunological Method, 65, 55-63, 1983). The 50% inhibitory concentration of a cell proliferation (IC 50) was calculated from a correlation between the concentration of the compound of the present invention and the absorption intensity.

[5] = test system: C3H/HeN mouse splenocytes stimulated with Concanavalin A (Con A); experiment: Suppressive effect on mitogenic activity of mouse splenocytes in vitro, Con A as mitogen (MTT); conditions: Con A 5 μg/ml as mitogen, 3 days
Procedure: as §8, §9

[6] = test system: IgM production of human peripheral lymphocytes; experiment: Suppressive effect on the antibody production of human lymphocytes: IgM; conditions: 10 days, ELISA
Procedure: as §1, §2, §3, §4, §5, §6, §7

COc1cc(-c2ccc(O)cc2)c(OC)c(O)c1-c1ccc(OCC=C(Cl)Cl)c(O)c1 [Compound I-121]
EL-4 IC50 [1]: 0.8 ng/mL | IC50 IgG [2]: <0.0001 ng/mL | IC50 IgE [3]: <0.0001 ng/mL | LPS IC50 [4]: 1.2 ng/mL | ConA IC50 [5]: 0.8 ng/mL | IC50 IgM [6]: >1 ng/mL
